Test system: snap bean gray mold fungus (Botrytis cinerea)
Assay: Test on Kidney Bean Gray Mold Control
Format: in vivo
Conditions: 50 ppm active ingredient, cut Kidney bean flowers (Nagauzura) dipped, spores sprayed, placed on detached leaves, 7 days at 20° C., high humidity
Protocol: Now, explanation is made on how the compounds according to the present invention are effective as an active ingredient of a fungicide for controlling various plant diseases with reference to Test examples described later. In the Test Examples, the control efficacy is determined by visually checking the infested state of the test plants at the time of observation, namely, checking the damage to the host plants and the developing state of the disease-causing fungus appeared on leaves, stems, etc. of the test plants, compared to the control test plants which are healthy. Flowers of Kidney bean (variety; Nagauzura) grown in a flat vessel for culturing seedlings are cut, and the cut flowers were dipped into a solution prepared by diluting the emulsifiable concentrate prepared for the compound of the present invention at a concentration of 50 ppm based on the active ingredient. After the dipping, the flowers were dried at a room temperature. Then, spore solution of snap bean gray mold fungus (Botrytis cinerea) was sprayed to the flowers. The flowers sprayed with spores of the gray mold fungus were placed on the leaves which were detached from healthy Kidney bean plants, and those leaves were placed in a room being maintained at 20° C. and high humidity with repeated lighting of 12 hours intervals, and the Kidney bean leaves were incubated in the room for 7 days. Then, the infestation degree by the fungus on the leaves was checked in comparison to the control healthy leaves to determine the control efficacy. […] Note that the compound numbers in the following correspond to the same compound numbers in the Table 1. Compound Nos. 1, 3, 6, 7, 11, 12, 13, 14, 15, 18, 20, 21, 22, 23, 25, 26, 27, 29, 36, 48, 49, 192, 194, 195, 196, 198, 201, 203, 204, 207, 208, 209, 210, 213, 216, 219, 220, 222, 223, 224, 225, 227, 228, 229, 231, 233, 234, 235, 236, 237, 239, 240, 242

SMILES	control performance (control efficacy)
COc1cccc(OC)c1CON=Cc1ccccn1 [compound 231]	excellent control performance
COc1cccc(OC)c1CON=Cc1cc(C)cc(C)n1.Cl [compound 236]	excellent control performance
COCc1cccc(OC)c1CON=Cc1cc(C)cc(C)n1 [compound 237]	excellent control performance
COc1ccc(C)c(OC)c1CON=Cc1cc(C)cc(C)n1 [compound 240]	excellent control performance
COc1ccc(Cl)c(OC)c1CON=Cc1cc(C)cc(C)n1 [compound 242]	excellent control performance

Reference: US6589967B1, “Oxime O-ether compounds and fungicides for agricultural and horticultural use” (Nippon Soda Co. Ltd., priority 1999, dated 2003)
